Key:
[1] = system: non-small cell lung cancer cell line (NSCLC), 177; assay: EPT with bleomycin of NSCLC xenografts in nude mice; type: in vivo
[2] = system: Human pancreatic xenograft (Panc-4); assay: EPT using MedPulser and bleomycin, Panc-4 xenograft; type: in vivo, nude mice; details: up to day 39 of observation
Text: (§1) Preliminary experiments using MedPulser™ (apparatus of the invention) for treatment of tumor xenografts grown subcutaneously onto nude mice have shown encouraging results. […] Treatment of human prostate xenografts (PC-3) has also shown about 66% complete regression of tumors. (No tumors observed up to 60 days after treatment). Both 4 and 6 needle array are effective in treatment of tumors by EPT.

[3] = system: human prostate xenografts (PC-3); assay: EPT using MedPulser, PC-3 xenograft; type: in vivo, nude mice; details: no tumors observed up to 60 days after treatment
Text: as §1

[4] = system: PC-3 (human prostate cell line); assay: MedPulser 4 vs 6 needle array in vitro, XTT cell survival; type: cell-based; details: bleomycin at 2×10^5 M, 20 hours
Procedure: Experiments were carried out to compare the efficacy of 6 vs. 4 needle array with MedPulser™ on PC-3 (human prostate cell line) in vitro. Cells were suspended in RPMI media and seeded uniformly at 200,000 cells/ml. Bleomycin at […] was added to the wells (for D+E− and D+E+ only). Cells were electroporated in 24 well plates using the 6-needle and 4-needle array electrodes connected to the MedPulser. The electropulse parameters were 6×99 μs, 1129 V with the 6-needle array and 4×99 μs, 848 V with the 4-needle array. The cells were transferred to 96 well plates and incubated for 20 hours at 37° C. The cell survival was determined using XTT assay which is based on metabolic conversion of XTT to formazan and is measured spectrophotometrically at 450 nm. Only the cells which are live convert XTT to formazan. The percent cell survival values are relative values calculated from the O.D. values of the sample, a control with 100% cell survival (D−E−) and control with 0% cell survival (D−E− with SDS, which lyses all cells).

[5] = system: basal cell carcinomas and melanomas; assay: Clinical trials of bleomycin-EPT for basal cell carcinomas and melanomas; type: in vivo, humans; details: for % RESPONSE CR D′D / % RESPONSE CR D′E′ / TUMOR RESPONSE CR D′D / TUMOR RESPONSE CR D′E′: CR=complete response; for % RESPONSE NE D′D / % RESPONSE NE D′E′ / TUMOR RESPONSE NE D′D / TUMOR RESPONSE NE D′E′: NE=no effect
Text: The following examples illustrate the use of EPT in cell lines, animals and humans. Example 1 illustrates EPT in poorly differentiated human pancreatic tumors (Panc-3) xenografted subcutaneously on the flank of nude mice. […] Example 4 provides in vitro data for EPT utilizing low voltage (electric field) and long pulse length. The parameters for EPT are described in the examples; for Example 1 and for the head and neck clinical trials, the nominal electric field was 1300 V/cm and 6 pulses for 99-100 μsec, spaced at 1 second intervals. The clinical trials (Example 2) used similar parameters, however the electric field was 1130 V/cm. (Nominal electric field (V/cm) is applied voltage (V) across the needle pairs divided by the distance between the needle pairs (cm).) The Examples illustrate the use of EPT for effectively killing undesired cell populations (e.g., a tumor) in vitro and in vivo.
The effectiveness of bleomycin-EPT on the tumors was to be assessed by the end of the eight-week period using the same tumor response criteria as employed in Example 1.
The concentration of bleomycin administered was 5 U/1 mL. The dosages of bleomycin were administered as follows: […]

[6] = cited from earlier work
[7] = BCC nodules, PR=partial response
[8] = Mel nodules, PR=partial response
[9] = Other nodules, PR=partial response
[10] = Total nodules, PR=partial response

For bleomycin, the EPT treatment result ([1]; bleomycin + EPT, NSCLC xenograft) was “very encouraging results”, the tumor after retreatment ([1]; recurred tumor retreated at day 27, after 7 days) was “no evidence of tumor” and the “mice with complete tumor regression” value [2] was “about 75%”. The “complete regression of tumors” value [3] was “about 66%”, the “Avg. % Survival” value ([4]; D + E + (4N), 4×99 μs, 848 V, 4-needle array) was 4.78% and the “Avg. % Survival” value ([4]; D + E + (6N), 6×99 μs, 1129 V, 6-needle array) was −4.12%. For the same substance, the “Avg. % Survival” value ([4]; D + E −, no pulse) was 27.71%, the “% RESPONSE CR D′D” value ([5]; BCC nodules) was 0% and the “% RESPONSE CR D′E′” value ([5]; BCC nodules) was 98%. The “TUMOR RESPONSE CR D′D” value ([5]; BCC nodules) was 0/6, the “TUMOR RESPONSE CR D′E′” value ([5]; BCC nodules) was 43/44 and the “% RESPONSE NE D′D” value ([5]; BCC nodules) was 83%. The “% RESPONSE NE D′E′” value ([5]; BCC nodules) was 0%, the “TUMOR RESPONSE NE D′D” value ([5]; BCC nodules) was 5/6 and the “TUMOR RESPONSE NE D′E′” value ([5]; BCC nodules, less than 50% reduction in tumor volume) was 0/44. The “TUMOR RESPONSE PR D′E′” value ([5]; BCC nodules, PR=50% or greater reduction in tumor volume) was 1/44, the “% RESPONSE PR D′D” value [5, 7] was 17% and the “% RESPONSE PR D′E′” value [5, 7] was 2%. The “TUMOR RESPONSE PR D′D” value [5, 7] was 1/6, the “% RESPONSE CR D′D” value ([5]; Mel nodules) was 0% and the “% RESPONSE CR D′E′” value ([5]; Mel nodules) was 91%. The “TUMOR RESPONSE CR D′D” value ([5]; Mel nodules) was 0/5, the “TUMOR RESPONSE CR D′E′” value ([5]; Mel nodules) was 53/58 and the “% RESPONSE NE D′D” value ([5]; Mel nodules) was 100%. The “% RESPONSE NE D′E′” value ([5]; Mel nodules) was 2%, the “TUMOR RESPONSE NE D′D” value ([5]; Mel nodules) was 5/5 and the “TUMOR RESPONSE NE D′E′” value ([5]; Mel nodules) was 1/58. For the same substance, the “% RESPONSE PR D′D” value [5, 8] was 0%, the “% RESPONSE PR D′E′” value [5, 8] was 7% and the “TUMOR RESPONSE PR D′D” value [5, 8] was 0/5. For the same substance, the “TUMOR RESPONSE PR D′E′” value [5, 8] was 4/58, the “% RESPONSE CR D′D” value ([5]; Other nodules) was 0% and the “% RESPONSE CR D′E′” value ([5]; Other nodules) was 80%. The “TUMOR RESPONSE CR D′D” value ([5]; Other nodules) was 0/3, the “TUMOR RESPONSE CR D′E′” value ([5]; Other nodules) was 4/5 and the “% RESPONSE NE D′D” value ([5]; Other nodules) was 100%. The “% RESPONSE NE D′E′” value ([5]; Other nodules) was 0%, the “TUMOR RESPONSE NE D′D” value ([5]; Other nodules) was 3/3 and the “TUMOR RESPONSE NE D′E′” value ([5]; Other nodules) was 0/5. For the same substance, the “% RESPONSE PR D′D” value [5, 9] was 0%, the “% RESPONSE PR D′E′” value [5, 9] was 20% and the “TUMOR RESPONSE PR D′D” value [5, 9] was 0/3. The “TUMOR RESPONSE PR D′E′” value [5, 9] was 1/5, the “% RESPONSE CR D′D” value ([5]; Total nodules) was 0% and the “% RESPONSE CR D′E′” value ([5]; Total nodules) was 93%. For the same substance, the “TUMOR RESPONSE CR D′D” value ([5]; Total nodules) was 0/14, the “TUMOR RESPONSE CR D′E′” value ([5]; Total nodules) was 100/107 and the “% RESPONSE NE D′D” value ([5]; Total nodules) was 93%. The “% RESPONSE NE D′E′” value ([5]; Total nodules) was 1%, the “TUMOR RESPONSE NE D′D” value ([5]; Total nodules) was 13/14 and the “TUMOR RESPONSE NE D′E′” value ([5]; Total nodules) was 1/107. For the same substance, the “% RESPONSE PR D′D” value [5, 10] was 7%, the “% RESPONSE PR D′E′” value [5, 10] was 6% and the “TUMOR RESPONSE PR D′D” value [5, 10] was 1/14. For the same substance, the “TUMOR RESPONSE PR D′E′” value [5, 10] was 6/107 and the “log P (P being the partition coefficient between octanol and water)” value [6] was “very negative”.
